The results in this text go back to patent US11407767B2, “Heterocyclyl substituted pyrrolopyridines that are inhibitors of the CDK12 kinase” (The University of Nottingham, priority 2017, dated 2022).

Counter-ions that a name gives are not always drawn. Some results are limits rather than exact numbers.

Chain of CDK12/CycK (Q9NYV4 whole entry): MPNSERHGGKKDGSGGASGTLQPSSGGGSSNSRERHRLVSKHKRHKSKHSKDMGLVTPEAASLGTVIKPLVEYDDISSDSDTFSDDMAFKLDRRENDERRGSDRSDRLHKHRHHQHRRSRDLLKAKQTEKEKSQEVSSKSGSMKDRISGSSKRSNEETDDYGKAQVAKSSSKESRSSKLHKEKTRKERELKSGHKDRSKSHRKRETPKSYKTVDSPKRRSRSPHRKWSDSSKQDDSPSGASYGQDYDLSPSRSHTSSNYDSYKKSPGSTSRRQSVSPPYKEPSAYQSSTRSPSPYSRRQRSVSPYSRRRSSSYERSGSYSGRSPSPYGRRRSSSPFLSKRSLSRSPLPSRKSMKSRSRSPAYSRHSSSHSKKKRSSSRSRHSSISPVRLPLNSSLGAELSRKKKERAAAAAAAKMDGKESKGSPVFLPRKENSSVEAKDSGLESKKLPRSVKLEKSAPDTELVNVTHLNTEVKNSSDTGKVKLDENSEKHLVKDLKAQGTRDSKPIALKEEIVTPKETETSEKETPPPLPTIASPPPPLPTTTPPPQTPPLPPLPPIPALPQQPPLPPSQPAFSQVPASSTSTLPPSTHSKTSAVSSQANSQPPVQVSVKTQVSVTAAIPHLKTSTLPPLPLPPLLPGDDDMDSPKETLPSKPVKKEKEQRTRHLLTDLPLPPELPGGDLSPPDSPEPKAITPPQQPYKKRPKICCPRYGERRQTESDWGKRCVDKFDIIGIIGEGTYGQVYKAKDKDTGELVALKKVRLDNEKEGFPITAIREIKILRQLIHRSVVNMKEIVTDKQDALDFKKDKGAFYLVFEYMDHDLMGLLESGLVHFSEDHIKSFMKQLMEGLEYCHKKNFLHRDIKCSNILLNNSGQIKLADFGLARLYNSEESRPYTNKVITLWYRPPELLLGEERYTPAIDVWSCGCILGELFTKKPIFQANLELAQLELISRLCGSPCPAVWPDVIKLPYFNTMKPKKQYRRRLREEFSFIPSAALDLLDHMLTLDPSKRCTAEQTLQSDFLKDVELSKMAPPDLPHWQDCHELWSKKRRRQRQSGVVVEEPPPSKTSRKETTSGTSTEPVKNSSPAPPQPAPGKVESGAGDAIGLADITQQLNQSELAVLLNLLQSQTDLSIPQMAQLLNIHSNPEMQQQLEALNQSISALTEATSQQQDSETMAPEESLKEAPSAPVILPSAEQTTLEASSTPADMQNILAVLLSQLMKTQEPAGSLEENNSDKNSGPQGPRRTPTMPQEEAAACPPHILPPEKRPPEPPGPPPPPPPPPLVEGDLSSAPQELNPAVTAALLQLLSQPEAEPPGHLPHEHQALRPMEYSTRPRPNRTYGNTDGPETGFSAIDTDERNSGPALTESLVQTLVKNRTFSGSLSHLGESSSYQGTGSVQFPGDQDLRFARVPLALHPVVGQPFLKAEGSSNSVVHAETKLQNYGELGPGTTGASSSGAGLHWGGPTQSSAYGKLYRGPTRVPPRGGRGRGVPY
Chain of CDK12/CycK (O75909 whole entry partner): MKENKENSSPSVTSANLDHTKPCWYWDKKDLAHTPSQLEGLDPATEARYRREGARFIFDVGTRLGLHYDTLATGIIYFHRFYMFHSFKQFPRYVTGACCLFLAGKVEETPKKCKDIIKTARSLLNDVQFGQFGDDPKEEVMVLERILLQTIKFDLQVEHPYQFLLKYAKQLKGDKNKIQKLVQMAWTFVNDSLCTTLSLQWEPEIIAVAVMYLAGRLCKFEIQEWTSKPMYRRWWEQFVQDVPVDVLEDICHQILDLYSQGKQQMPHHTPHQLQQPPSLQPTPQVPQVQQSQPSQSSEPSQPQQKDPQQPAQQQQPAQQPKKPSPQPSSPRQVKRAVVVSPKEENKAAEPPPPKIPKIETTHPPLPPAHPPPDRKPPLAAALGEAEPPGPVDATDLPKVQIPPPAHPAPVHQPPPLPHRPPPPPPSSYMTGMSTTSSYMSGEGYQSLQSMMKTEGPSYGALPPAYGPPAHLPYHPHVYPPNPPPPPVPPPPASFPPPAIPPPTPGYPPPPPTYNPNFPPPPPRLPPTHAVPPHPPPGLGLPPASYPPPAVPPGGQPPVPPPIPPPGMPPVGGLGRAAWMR

The assay concerns the target CDK12/CycK (Homo sapiens, UniProt Q9NYV4). Kind of assay: Inhibition of CDK12 (ADP-Glo kinase assay). The class given is biochemical. Conditions: 60 nM CDK12/CycK, 30 minutes pre-incubation, 1 μM ATP, 0.5 μM RBER-IRStide substrate, 1 h at 25° C., read-out: CDK12/cyclin K IC50. As to the method: Assay buffer comprised 50 mM HEPES pH 7.5, 1 mM DTT, 20 mM MgCl2, 3 mM MnCl2, 3 μM Na3VO4 and 50 μg/ml PEG8000. Kinase reactions were carried out in 384-well Optiplates™ (PerkinElmer 6007299). Test compounds were dissolved & diluted in dimethyl sulfoxide (DMSO) and cross diluted into assay buffer with a final DMSO concentration of 1% (v/v) in the assay. Test compounds (or 1% DMSO in control and blank wells) were pre-incubated with 60 nM CDK12/CycK for 30 minutes. After this time 1 μM Adenosine-5′-triphosphate (ATP) and 0.5 μM RBER-IRStide substrate (ProQinase 0863-0000-1) were added to commence the kinase reaction. Incubations were carried out for 1 h at 25° C. with kinase activity determined using the ADP-Glo™ reagent from Promega according to the manufacturer's instructions. Light generated is proportional to kinase activity and measured using a luminometer (EnVision, PerkinElmer). The signal obtained in the blank wells (containing no kinase) was subtracted from all other wells and IC50 values were determined by fitting a sigmoidal curve to % inhibition of control versus Log10 compound concentration.
As to `CN(C)C/C=C/C(=O)N1CCCC[C@H]1C(=O)NCCc1cc2c(-c3cnn4ncccc34)ccnc2[nH]1` [Example 87, (S,E)-1-(4-(Dimethylamino)but-2-enoyl)-N-(2-(4-(pyrazolo[1,5-b]pyridazin-3-yl)-1H-pyrrolo[2,3-b]pyridin-2-yl)ethyl)piperidine-2-carboxamide], the IC50 was in the range of 1 to 30 µM.
With `CN(C)C/C=C/C(=O)N1CCCC[C@@H]1C(=O)NCCc1cc2c(-c3cnn4ncccc34)ccnc2[nH]1` [Example 88, (R,E)-1-(4-(Dimethylamino)but-2-enoyl)-N-(2-(4-(pyrazolo[1,5-b]pyridazin-3-yl)-1H-pyrrolo[2,3-b]pyridin-2-yl)ethyl)piperidine-2-carboxamide Formate Salt], the IC50 was in the range of 0.1 to 1 µM.
Under `O=C(NCCc1cc2c(-c3cnn4ncccc34)ccnc2[nH]1)[C@@H]1CCCN1S(=O)(=O)c1ccccc1` [Example 89, (S)-1-(phenylsulfonyl)-N-(2-(4-(pyrazolo[1,5-b]pyridazin-3-yl)-1H-pyrrolo[2,3-b]pyridin-2-yl)ethyl)pyrrolidine-2-carboxamide] stands 0.1 to 1 µM; under `C=CC(=O)N1CCCC[C@@H]1C(=O)NCCc1cc2c(-c3cnn4ncccc34)ccnc2[nH]1` [Example 93, (R)-1-Acryloyl-N-(2-(4-(pyrazolo[1,5-b]pyridazin-3-yl)-1H-pyrrolo[2,3-b]pyridin-2-yl)ethyl)piperidine-2-carboxamide], less than 0.1 µM.
The figure for `C=CC(=O)N1CCC[C@H]1C(=O)NCCc1cc2c(-c3ccncc3)ccnc2[nH]1` [Example 95, (S)-1-Acryloyl-N-(2-(4-(pyridin-4-yl)-1H-pyrrolo[2,3-b]pyridin-2-yl)ethyl)pyrrolidine-2-carboxamide] is 1 to 30 µM; for `NCCc1cc2c(-c3cnn4ncccc34)c(Cl)cnc2[nH]1` [Example 101, 2-(5-chloro-4-(pyrazolo[1,5-b]pyridazin-3-yl)-1H-pyrrolo[2,3-b]pyridin-2-yl)ethan-1-amine] it is 0.1 to 1 µM.
Take `NCCc1cc2c(-c3cccnc3)ccnc2[nH]1` [Example 104, 2-(4-(Pyridin-3-yl)-1H-pyrrolo[2,3-b]pyridin-2-yl)ethan-1-amine]: the IC50 lay in the range of 1 to 30 µM.
For the compound `C=CC(=O)N1CCC[C@H]1C(=O)NCCc1cc2c(-c3cccnc3)ccnc2[nH]1` [Example 105, (S)-1-Acryloyl-N-(2-(4-(pyridin-3-yl)-1H-pyrrolo[2,3-b]pyridin-2-yl)ethyl)pyrrolidine-2-carboxamide], the IC50 lay within 1 to 30 µM.
As to `O=C(NCCc1cc2c(-c3ccncc3)ccnc2[nH]1)[C@@H]1CCCN1` [Example 107, (S)—N-(2-(4-(Pyridin-4-yl)-1H-pyrrolo[2,3-b]pyridin-2-yl)ethyl)pyrrolidine-2-carboxamide], the IC50 lay in the range of 1 to 30 µM.
As to `Nc1cccc(-c2cc3c(-c4cnn5ncccc45)ccnc3[nH]2)c1` [Example 114, 3-(4-(Pyrazolo[1,5-b]pyridazin-3-yl)-1H-pyrrolo[2,3-b]pyridin-2-yl)aniline], the IC50 is less than 0.1 µM.
`C=CC(=O)Nc1cccc(C(=O)Nc2cccc(-c3cc4c(-c5cnn6ncccc56)ccnc4[nH]3)c2)c1` [Example 115, 3-Acrylamido-N-(3-(4-(pyrazolo[1,5-b]pyridazin-3-yl)-1H-pyrrolo[2,3-b]pyridin-2-yl)phenyl)benzamide]: the IC50 was less than 0.1 µM.
As for `O=C(NCc1cc2c(-c3cnn4ncccc34)ccnc2[nH]1)C1CC1` [Example 116, N-((4-(Pyrazolo[1,5-b]pyridazin-3-yl)-1H-pyrrolo[2,3-b]pyridin-2-yl)methyl)cyclopropanecarboxamide], the IC50 lay in the range of 1 to 30 µM.
The figure for `CN(C)CC(=O)NCc1cc2c(-c3cnn4ncccc34)ccnc2[nH]1` [Example 117, 2-(Dimethylamino)-N-((4-(pyrazolo[1,5-b]pyridazin-3-yl)-1H-pyrrolo[2,3-b]pyridin-2-yl)methyl)acetamide Formate Salt] is 1 to 30 µM; for `O=S(=O)(NCc1cc2c(-c3cnn4ncccc34)ccnc2[nH]1)C1CC1` [Example 118, N-((4-(Pyrazolo[1,5-b]pyridazin-3-yl)-1H-pyrrolo[2,3-b]pyridin-2-yl)methyl)cyclopropanesulfonamide] it is 1 to 30 µM; for `CC(C)(C)OC(=O)N1CCC(c2cc3c(-c4cnn5ncccc45)ccnc3[nH]2)C1` (centres unmarked) [Example 119, tert-Butyl 3-(4-(pyrazolo[1,5-b]pyridazin-3-yl)-1H-pyrrolo[2,3-b]pyridin-2-yl)pyrrolidine-1-carboxylate] it is 0.1 to 1 µM.
As for `c1cnn2ncc(-c3ccnc4[nH]c(C5CCNC5)cc34)c2c1` (centres unmarked) [Example 122, 3-[2-(pyrrolidin-3-yl)-1H-pyrrolo[2,3-b]pyridine-4-yl)pyrazolo[1,5-b]pyridazine], the IC50 is less than 0.1 µM.
Turning to `C#CC(=O)Nc1ccc(C(=O)N2CCC(c3cc4c(-c5cnn6ncccc56)ccnc4[nH]3)C2)cc1` (centres unmarked) [Example 128, N-(4-(3-(4-(Pyrazolo[1,5-b]pyridazin-3-yl)-1H-pyrrolo[2,3-b]pyridin-2-yl)pyrrolidine-1-carbonyl)phenyl)propiolamide], the IC50 is less than 0.1 µM.
Regarding `OCC(O)COc1cnn2ncc(-c3ccnc4[nH]ccc34)c2c1` (centres unmarked) [Example 131, 3-((3-(1H-Pyrrolo[2,3-b]pyridin-4-yl)pyrazolo[1,5-b]pyridazin-5-yl)oxy)propane-1,2-diol], the IC50 was in the range of 1 to 30 µM.
Regarding `Clc1cnc2[nH]ccc2c1-c1cnn2ncccc12` [Example 132, 3-(5-Chloro-1H-pyrrolo[2,3-b]pyridin-4-yl)pyrazolo[1,5-b]pyridazine], the IC50 is 0.1 to 1 µM.
`CCn1cc(-c2ccnc3[nH]ccc23)nn1` [Example 133, 4-(1-Ethyl-1H-1,2,3-triazol-4-yl)-1H-pyrrolo[2,3-b]pyridine]: the IC50 fell in the range of 1 to 30 µM.
Under `c1ccc(Cn2cc(-c3ccnc4[nH]ccc34)nn2)cc1` [Example 134, 4-(1-Benzyl-1H-1,2,3-triazol-4-yl)-1H-pyrrolo[2,3-b]pyridine] stands 1 to 30 µM; under `COc1ccc(Cn2cc(-c3ccnc4[nH]ccc34)nn2)cc1` [Example 135, 4-(1-(4-Methoxybenzyl)-1H-1,2,3-triazol-4-yl)-1H-pyrrolo[2,3-b]pyridine], 1 to 30 µM.
The figure for `c1cncc(Cn2cc(-c3ccnc4[nH]ccc34)nn2)c1` [Example 136, 4-(1-(Pyridin-3-ylmethyl)-1H-1,2,3-triazol-4-yl)-1H-pyrrolo[2,3-b]pyridine] is 1 to 30 µM.
For the compound `CN(C)C/C=C/C(=O)Nc1cccc(C(=O)N2CCC(c3cc4c(-c5cnn6ncccc56)ccnc4[nH]3)C2)c1` (centres unmarked) [Example 142, (E)-4-(Dimethylamino)-N-(3-(3-(4-(pyrazolo[1,5-b]pyridazin-3-yl)-1H-pyrrolo[2,3-b]pyridin-2-yl)pyrrolidine-1-carbonyl)phenyl)but-2-enamide], the IC50 is less than 0.1 µM.
As for `C=CC(=O)N1CCC(C(=O)N2CCC(c3cc4c(-c5cnn6ncccc56)ccnc4[nH]3)C2)CC1` (centres unmarked) [Example 143, 1-(4-(3-(4-(Pyrazolo[1,5-b]pyridazin-3-yl)-1H-pyrrolo[2,3-b]pyridin-2-yl)pyrrolidine-1-carbonyl)piperidin-1-yl)prop-2-en-1-one], the IC50 is less than 0.1 µM.
With `C#CC(=O)N1CCC(C(=O)N2CCC(c3cc4c(-c5cnn6ncccc56)ccnc4[nH]3)C2)CC1` (centres unmarked) [Example 147, 1-(4-(3-(4-(Pyrazolo[1,5-b]pyridazin-3-yl)-1H-pyrrolo[2,3-b]pyridin-2-yl)pyrrolidine-1-carbonyl)piperidin-1-yl)prop-2-yn-1-one], the IC50 is less than 0.1 µM.
